Reference: patent US5583000A, “Protease-binding compounds and methods of use” (priority 1993, dated 1996)
Values after ≈ are worked out from the molar mass of the structure shown. Read-outs that look alike come from different tables or passages of the source.

Columns and labels:
[1] = target: T1, HIV-1 PR (Human immunodeficiency virus type 1 group M subtype B, UniProt P03369); test: biochemical; type: binding; details: 1 h, pH 8; preincubation 10 μM one hour, then radio-labelled UCSF84 200 μM; read-out: blocking of radioactivity incorporation to HIV-1 PR
[2] = target: HIV-1 PR C95M (Human immunodeficiency virus type 1 group M subtype B, UniProt P03369, C585M); test: Protection experiment, incorporation of radio-labelled UCSF84; type: binding; details: preincubation 10 μM, then radio-labelled UCSF84
[3] = target: T2, HIV-2 PR (Human immunodeficiency virus type 2 subtype A, UniProt P04584); test: as above; type: binding
T2 construct: HIV-2 PR (at a final concentration of 30 μg/mL); made in house

[4] = target: HIV-1 PR Q7K (Human immunodeficiency virus type 1 group M subtype B, UniProt P03369, Q497K); type: biochemical
[5] = target: T2, HIV-2 PR; test: biochemical; type: biochemical; details: for KI (inactivation): inhibitor concentration resulting in half-maximal inactivation, pH 8.0, 25° C., read-out: kinact (μM) HIV-2; for kinact: pH 8, maximum inactivation rate, read-out: Vinact (min^-1 × 10^3) HIV-2 (converted)
[6] = target: HIV-1 protease (Human immunodeficiency virus type 1 group M subtype B, UniProt P03369); test: biochemical
[7] = target: T1, HIV-1 PR; details: pH 8
Description: Once full inhibition was achieved, the enzyme was isolated by reverse phase HPLC on a C3 -Zorbax Protein Plus column (4.6 mm×25 cm), using a 100-minute linear gradient from 5 to 65% acetonitrile in 0.1% TFA. The flow rate was 1 mL/min and the eluent was monitored at 220 nm. The two major components of the isolated sample were concentrated under vacuum, dissolved in a small volume of 50% acetonitrile and 1% acetic acid, and their molecular weights determined by electrospray mass spectrometry. The spectra were recorded on a VG EIectrospray. Mass Spectrometer Model Bio-Q.

[8] = in vitro
Description: Cytotoxicity. The MTT assay was performed as follows:
The cells were seeded in 96-well plates and grown overnight to near 50% confluency. A serial dilution (1 to 500 μM) of each compound in culture media was prepared and 250 μL/well was added in duplicate. The cells were allowed to grow for various periods of time (6, 24, 48 hours) and any precipitation of compounds in the wells was noted. The assay was performed by removing 200 μL of the culture media and adding 25 μL of MTT solution (2 mg/mL in phosphate buffered saline (PBS)). This was incubated for 4 hours at 37° C. and live cells began to turn purple while the solution remained yellow. To quench the reaction and solubilize the reaction product, 160 μL of acidified isopropanol (4 mL 1N HCl for 96 mL alcohol) were added and the resulting mixture was mixed vigorously to dissolve purple crystals. Absorbance was determined at 550-570 nm on an ELISA plate reader within 0.5-2 hours. […] To obtain the LD50 values for each compound, the concentration at which the absorbance is haft of that for the untreated cells was determined.

[9] = physchem
[10] = in vitro; details: african green monkey, cos-7 cells
Description: MTT cell viability assay. This is a quantitative colorimetric assay for mammalian cell survival and proliferation. Cells were seeded in 96 well plates and grown to near 50% confluency. A serial dilution (1 to 500 μM) of each compound was then prepared in culture media and added (250 μL/well) in duplicate. All culture media was adjusted to a final concentration of 1.0% DMSO (volume basis). The cells were allowed to grow for either 4 hours or 24 hours. The culture media were then removed, and the cells were washed with phosphate buffered saline (PBS) before 50 μL of MTT solution (1 mg/mL in PBS) was added. After incubating for 4 hours at 37° C., the reaction was quenched by adding 160 μL of acidified isopropanol and mixing to dissolve purple crystals. The absorbance was determined within 30 minutes at 570 nm on an ELISA plate reader.
The cytotoxic effect of the inhibitors was determined using the MTT stain viability assay.

T2 sequence (P04584 514-612 limits assumed): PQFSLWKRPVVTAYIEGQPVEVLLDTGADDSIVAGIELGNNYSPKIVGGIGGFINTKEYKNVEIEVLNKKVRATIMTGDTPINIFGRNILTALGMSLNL

Compound | inhibition at 10 µM [1] [%] | incorporation after preincubation of the enzyme [2] | radioactivity incorporation after preincubation [3] | KI (inactivation) ([4]; inhibitor concentration resulting in half-maximal inactivation; pH 8.0, 25° C.; read-out: kinact (μM) HIV-1) [µM] | KI (inactivation) [5] [µM] | kinact [5] [min⁻¹] | HIV-1 Protease Therapeutic Index (LD50 /IC50) [6] | IC50 ([6]; HIV-1 Protease IC50 (μM) 1M NaCl) [µM] | KI (inactivation) ([4]; read-out: kinact (μM) HIV-1; inhibitor concentration resulting in half-maximal inactivation; pH 8.0, 25° C.) [µM] | molecules of inhibitor bound per HIV-1 protease (molecular weight 11,649) [7] | CC50 at 6 h [8] [µM] | solubility [9] [µM] | CC50 at 4 h [10] [µM] | CC50 at 24 h [10] [µM]
O=[N+]([O-])c1ccc(OCC2CO2)cc1 (stereo not shown) [EPNP, 1,2-epoxy-3-(p-nitrophenoxy)-propane, reference compound] | ~50 | sharply reduced | almost complete elimination of radioactivity incorporation | 9900 ± 1000 | 6700 ± 600 | 0.0482 |  |  |  |  |  |  |  | 
O=C(C#CCN1CCC(O)(c2ccc(Cl)cc2)CC1)c1cccc(-c2ccccc2)c1 [UCSF142, 4-(4'-(4"-chlorophenyl)-4'-hydroxypiperidinyl)-1-m-biphenylbut-2-yn-1-one] |  |  |  |  | 8.6 ± 1 | 0.0097 | 0.56 | 63 | 10.7 ± 1.3 | two molecules | 35 | 100 (≈ 43 µg/mL) | 35 | < 5
